# Measured values from the SangsterLogP compilation.
# Key:
# [1] = method code SF-HPLC, from DOI: 10.1016/0378-5173(92)90116-j; settings: pH 7.4
# [2] = method code SF-AS, from DOI: 10.1006/pest.1994.1014
# [3] = method code SF-GLC, from DOI: 10.1016/s0045-6535(02)00841-x, PMID: 12615110
# [4] = not given; remark: listed apart in the source
# [5] = method code SF-AS, from Kourounakis, P.; Chilliard, N. (1983). Ionization constants and partition coefficients of some 1,1-diphenyl-1-alkoxy-3-dialkylamino-2-propanones with analgesic activity. Pharmazie, 38(6)388-389.; settings: pH 7.4
# [6] = not given; remark: listed apart in the source
# [7] = method code SF-AS, from DOI: 10.1080/10826076.2011.619030
# [8] = method code SF-HPLC, from DOI: 10.1002/jlac.1995199512305
# [9] = not given; remark: listed apart in the source
# [10] = method code SF-HPLC, from DOI: 10.1002/etc.5620081103
# [11] = method code SF-AS, from DOI: 10.1211/0022357001777513, PMID: 11186244; settings: pH 7.3
# [12] = method code SF-AS, from DOI: 10.1016/0048-3575(88)90061-2
# [13] = not given; remark: listed apart in the source
# [14] = not given; remark: listed apart in the source
# [15] = method code SF-AS, from PMID: 5136171
# [16] = method code SF-AS, from DOI: 10.1021/jm00371a026, PMID: 6425501; settings: pH 7.4
# [17] = method code SF-RC, from DOI: 10.1021/es60170a013
# [18] = not given; remark: listed apart in the source
compound,measurement,setting,value
CCC(C(=O)OCc1cccc(COC(=O)C(CC)C(CO)Cc2cncn2C)c1)C(CO)Cc1cncn1C (configuration not stated),logD,[1],1.99
O=C(O)CCCC[C@@H]1SC[C@@H]2NC(=O)N[C@@H]21,logP,,0.39
CC(C)(C)N(NC(=O)c1cccc(Cl)c1)C(=O)c1ccccc1Cl,logP,[2],3.49
Brc1ccc(Oc2c(Br)cc(Br)cc2Br)c(Br)c1,logP,[3],7.24
COCC(c1c(O)c2ccccc2oc1=O)c1c(O)c2ccccc2oc1=O,logP,[4],1.38
CCOC(C(=O)CN1CCOCC1)(c1ccccc1)c1ccccc1,logD,[5],1.08
CC(C)(C)N(NC(=O)c1ccccc1F)C(=O)c1ccccc1Cl,logP,[2],2.63
CC(=O)C1(O)Cc2c(O)c3c(c(O)c2C(OC2CC(N)C(O)C(C)O2)C1)C(=O)c1ccccc1C3=O (configuration not stated),logP,[6],0.68
CC1(C)OC2C(COC3CC(O)C(O)C(CO)O3)OC(n3ccc(=O)[nH]c3=O)C2O1 (configuration not stated),logP,[7],-1.56
Cc1cn(C2CC(N=[N+]=[N-])C(COP(=O)(OCC3OC(n4cc(C)c(=O)[nH]c4=O)CC3N=[N+]=[N-])C(O)c3ccc([N+](=O)[O-])cc3[N+](=O)[O-])O2)c(=O)[nH]c1=O (configuration not stated),logP,[8],0.94
Cc1cn(C2CC(N=[N+]=[N-])C(COP(=O)(OCC3OC(n4cc(C)c(=O)[nH]c4=O)CC3N=[N+]=[N-])C(O)c3ccc(Cl)cc3)O2)c(=O)[nH]c1=O (configuration not stated),logP,[8],1.45
Brc1cc(Br)c(Oc2cc(Br)c(Br)cc2Br)c(Br)c1,logP,[3],7.82
Brc1ccc(Oc2ccc(Br)cc2Br)c(Br)c1,logP,[3],6.81
CCOC1OC2OC3(C)C=C(O)C4C(C)CCC(C1C)C24OO3 (configuration not stated),logP,[9],2.7
O=C1C(c2nc3ccccc3cc2O)=C(O)c2ccccc21,logP,[10],5
OCC(O)COc1cccc(-c2c3nc(c(-c4cccc(OCC(O)CO)c4F)c4ccc([nH]4)c(-c4cccc(OCC(O)CO)c4F)c4nc(c(-c5cccc(OCC(O)CO)c5F)c5ccc2[nH]5)C=C4)C=C3)c1F (configuration not stated),logD,[11],2.65
COc1ccc(C(O)P(=O)(OCC2OC(n3cc(C)c(=O)[nH]c3=O)CC2N=[N+]=[N-])OCC2OC(n3cc(C)c(=O)[nH]c3=O)CC2N=[N+]=[N-])cc1 (configuration not stated),logP,[8],0.72
O=C(NC(=O)c1c(F)cccc1F)Nc1ccc(Oc2ncc(Cl)cc2C(F)(F)F)cc1,logP,[12],3.5
O=C(NC(=O)c1c(F)cccc1F)Nc1ccc(Oc2ncc(C(F)(F)F)cc2Cl)cc1,logP,[12],3.53
O=c1[nH]ccc2c(Nc3c(Cl)cc(C(O)C(F)F)cc3Cl)nc3ccncc3c12 (configuration not stated),logP,[13],1.46
CC(Cl)CCl (configuration not stated),logP,[14],1.98
CC(C)(CO)[C@@H](O)C(=O)NCCC(=O)O,logP,,-1.69
COc1cc(N=Nc2c(Br)cc([N+](=O)[O-])cc2Br)c(NC(C)=O)cc1N(CCOC(C)=O)CCOC(C)=O,logP,[10],4.8
CCC(C(=O)OCCCCCCOC(=O)C(CC)C(CO)Cc1cncn1C)C(CO)Cc1cncn1C (configuration not stated),logD,[1],1.84
CC(=O)OCCN(CCC#N)c1ccc(/N=N/c2nc3ccc([N+](=O)[O-])cc3s2)cc1,logP,[10],4.6
O=c1[nH]ccc2c(Nc3c(Cl)cc(C4=NNCC4)cc3Cl)nc3ccncc3c12,logP,[13],1.43
ClCCCl,logP,[14],1.55
CCOC(=O)c1cnc2cc(OCCOC(C)C)c(OCC(C)C)cc2c1O,logP,[15],2.17
CO[C@@]12[C@H](COC(N)=O)C3=C(C(=O)C(C)=C(Nc4nc(C)c(C)s4)C3=O)N1C[C@@H]1N[C@@H]12,logD,[16],1.29
Cc1cn(C2CC(N=[N+]=[N-])C(COP(=O)(OCC3OC(n4cc(C)c(=O)[nH]c4=O)CC3N=[N+]=[N-])C(O)c3ccc([N+](=O)[O-])cc3)O2)c(=O)[nH]c1=O (configuration not stated),logP,[8],0.83
OCC(O)COc1cccc(-c2c3nc(c(-c4cccc(OCC(O)CO)c4)c4ccc([nH]4)c(-c4cccc(OCC(O)CO)c4)c4nc(c(-c5cccc(OCC(O)CO)c5)c5ccc2[nH]5)C=C4)C=C3)c1 (configuration not stated),logD,[11],4.83
CC1(C)OC2C(COC(=O)c3ccccc3)OC(n3ccc(=O)[nH]c3=O)C2O1 (configuration not stated),logP,[7],1.29
CC(=O)C1(O)Cc2c(O)c3c(c(O)c2C(OC2CC(N)C(O)C(C)O2)C1)C(=O)c1c(O)cccc1C3=O (configuration not stated),logP,[6],0.96
Oc1ccc(Cl)c(O)c1,logP,[17],1.8
CC1(C)S[C@@H]2[C@H](NC(=O)Cc3ccccc3)C(=O)N2[C@H]1C(=O)O,logP,[18],1.83
CCOC(=O)C(c1c(O)c2ccccc2oc1=O)c1c(O)c2ccccc2oc1=O,logP,[4],1.32
CC1(C)SC2C(NC(=O)CCOc3ccccc3)C(=O)N2C1C(=O)O (configuration not stated),logP,[18],2.28
CCOC1OC2OC3(C)CC(OC4OC(C(=O)O)C(O)C(O)C4O)C4C(C)CCC(C1C)C24OO3 (configuration not stated),logP,[9],1.73
CC1CCC2C(C)C(OC3OC(C(=O)O)C(O)C(O)C3O)OC3OC4(C)CCC1C32OO4 (configuration not stated),logP,[9],1.08
CCOC(=O)c1cnc2cc(OCc3ccccc3)c(OCCOC)cc2c1O,logP,[15],1.95
CCOC(=O)c1cnc2cc(OCC(C)C)c(OCC(C)C)cc2c1O,logP,[15],2.18
O=c1[nH]ccc2c(Nc3c(F)cc(F)cc3Cl)nc3ccncc3c12,logP,[13],1.75
CO[C@@]12[C@@H]3N[C@@H]3CN1C1=C(C(=O)C(Nc3nc(C)cs3)=C(C)C1=O)[C@@H]2COC(N)=O,logD,[16],1.16
COc1cccc2c1C(=O)c1c(O)c3c(c(O)c1C2=O)C[C@@](O)(C(=O)CO)C[C@@H]3O[C@H]1C[C@H](N)C[C@H](C)O1,logP,[6],0.01
COc1cccc(OC)c1C(=O)N[C@@H]1C(=O)N2[C@@H]1SC(C)(C)[C@@H]2C(=O)O,logP,[18],1.22
O=C(NC(=O)c1c(F)cccc1F)Nc1ccc(Oc2ccc(C(F)(F)F)cn2)cc1,logP,[12],2.8
Oc1ccc(-c2c3nc(c(-c4ccc(O)cc4)c4ccc([nH]4)c(-c4ccc(O)cc4)c4nc(c(-c5ccc(O)cc5)c5ccc2[nH]5)C=C4)C=C3)cc1,logD,[11],4.77
CCOC(=O)c1cnc2cc(OCCOC)c(OC)cc2c1O,logP,[15],1.36
Cc1cccc(C(=O)NN(C(=O)c2ccccc2Cl)C(C)(C)C)c1,logP,[2],3.11
CC(C)(C)N(NC(=O)c1cccc(F)c1)C(=O)c1ccccc1Cl,logP,[2],2.88
CC1(C)OC2C(COC3CC(O)C(O)C(CO)O3)OC(n3ccc(=O)n(Cc4ccccc4)c3=O)C2O1 (configuration not stated),logP,[7],0.59
O=c1oc2ccccc2c(O)c1C(c1ccccc1)c1c(O)c2ccccc2oc1=O,logP,[4],1.95
CCC(c1c(O)c2ccccc2oc1=O)c1c(O)c2ccccc2oc1=O,logP,[4],2.02
ClC(Cl)C(Cl)Cl,logP,[17],2.39
ClC(Cl)Cl,logP,[17],1.9
CO[C@@]12[C@H](COC(N)=O)C3=C(C(=O)C(C)=C(Nc4ccc(C)nc4)C3=O)N1C[C@@H]1N[C@@H]12,logD,[16],0.59
CO[C@@]12[C@H](COC(N)=O)C3=C(C(=O)C(C)=C(Nc4ccccc4)C3=O)N1C[C@@H]1N[C@@H]12,logD,[16],1.3
OCC(O)COc1c(F)cc(-c2c3nc(c(-c4cc(F)c(OCC(O)CO)c(F)c4)c4ccc([nH]4)c(-c4cc(F)c(OCC(O)CO)c(F)c4)c4nc(c(-c5cc(F)c(OCC(O)CO)c(F)c5)c5ccc2[nH]5)C=C4)C=C3)cc1F (configuration not stated),logD,[11],2.61
CC1(C)OC2C(COC3CC(O)C(O)C(CO)O3)OC(n3ccc(=O)n(C(=O)c4ccccc4)c3=O)C2O1 (configuration not stated),logP,[7],0.13
CC(O)c1cc(Cl)c(Nc2nc3ccncc3c3c(=O)[nH]ccc23)c(Cl)c1 (configuration not stated),logP,[13],1.2
CCC(C(=O)OCCCCOC(=O)C(CC)C(CO)Cc1cncn1C)C(CO)Cc1cncn1C (configuration not stated),logD,[1],1.16
ClC=C(Cl)Cl,logP,[14],2.67
CC(C=CC1=C(C)C=CCC1(C)C)=CC=CC(C)=CCO,logP,,7.41
CCOC1OC2OC3(C)CCC4C(OC5OC(C(=O)O)C(O)C(O)C5O)CCC(C1C)C24OO3 (configuration not stated),logP,[9],1.05
CC1(C)SC2C(NC(O)c3ccccc3)C(=O)N2C1C(=O)O (configuration not stated),logP,[18],1.4
CCCOC(C(=O)CN(C)C)(c1ccccc1)c1ccccc1,logD,[5],1.73
C#CCOC(C(=O)CN(C)C)(c1ccccc1)c1ccccc1,logD,[5],0.7
COC1C(N)CC(OC2CC(O)(C(=O)CO)Cc3c(O)c4c(c(O)c32)C(=O)c2ccccc2C4=O)OC1C (configuration not stated),logP,[6],0.39
CCC(C(=O)OCCCOC(=O)C(CC)C(CO)Cc1cncn1C)C(CO)Cc1cncn1C (configuration not stated),logD,[1],0.68
CC#CCOC(C(=O)CN(C)C)(c1ccccc1)c1ccccc1,logD,[5],0.85
C=CCN(CCC#N)c1cc(NC(C)=O)c(/N=N/c2c(Br)cc([N+](=O)[O-])cc2[N+](=O)[O-])cc1OC,logP,[10],5.4
O=C(NC(=O)c1c(F)cccc1F)Nc1ccc(Oc2ccccn2)cc1,logP,[12],1.57
